Assay results reported in US10308639B2, “Phosphatidylinositol 3-kinase inhibitors” (Gilead Sciences, Inc., priority 2014, dated 2019).

What follows are compounds tested against T1, PI3Kδ (Homo sapiens, UniProt O00329) (assay: TR-FRET enzymatic activity assay, PI3Kδ). Conditions: Table 2a; same assay.
T1 construct: made in house
Type: biochemical

T1 sequence (O00329 whole entry): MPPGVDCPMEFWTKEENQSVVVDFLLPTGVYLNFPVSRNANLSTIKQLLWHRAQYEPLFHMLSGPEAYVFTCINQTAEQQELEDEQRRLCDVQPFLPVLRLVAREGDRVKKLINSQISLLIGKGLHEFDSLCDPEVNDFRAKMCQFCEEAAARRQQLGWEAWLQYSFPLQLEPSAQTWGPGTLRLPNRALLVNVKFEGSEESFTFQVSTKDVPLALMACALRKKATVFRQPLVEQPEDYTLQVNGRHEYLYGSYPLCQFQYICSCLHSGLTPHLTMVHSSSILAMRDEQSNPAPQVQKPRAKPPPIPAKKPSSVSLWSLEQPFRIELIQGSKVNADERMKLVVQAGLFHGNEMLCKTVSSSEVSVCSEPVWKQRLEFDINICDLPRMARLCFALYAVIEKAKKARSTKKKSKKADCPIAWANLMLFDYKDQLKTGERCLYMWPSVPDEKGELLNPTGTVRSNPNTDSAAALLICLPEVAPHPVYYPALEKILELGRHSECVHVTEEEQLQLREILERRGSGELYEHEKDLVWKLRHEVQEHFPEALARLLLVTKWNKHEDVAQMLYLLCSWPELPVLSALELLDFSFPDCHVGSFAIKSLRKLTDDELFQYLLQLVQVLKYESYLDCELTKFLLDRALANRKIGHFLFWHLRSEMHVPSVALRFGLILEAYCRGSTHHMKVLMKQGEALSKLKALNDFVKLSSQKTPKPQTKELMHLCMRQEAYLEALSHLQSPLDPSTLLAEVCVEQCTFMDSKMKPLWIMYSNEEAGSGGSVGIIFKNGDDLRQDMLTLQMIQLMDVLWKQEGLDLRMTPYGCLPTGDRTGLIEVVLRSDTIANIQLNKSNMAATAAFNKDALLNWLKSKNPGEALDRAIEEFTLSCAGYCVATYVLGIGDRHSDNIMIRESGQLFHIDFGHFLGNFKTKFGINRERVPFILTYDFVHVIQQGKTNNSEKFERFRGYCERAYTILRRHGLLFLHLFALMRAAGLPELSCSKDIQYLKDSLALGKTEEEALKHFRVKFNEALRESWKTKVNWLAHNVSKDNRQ
T1 sequence (P27986 whole entry partner): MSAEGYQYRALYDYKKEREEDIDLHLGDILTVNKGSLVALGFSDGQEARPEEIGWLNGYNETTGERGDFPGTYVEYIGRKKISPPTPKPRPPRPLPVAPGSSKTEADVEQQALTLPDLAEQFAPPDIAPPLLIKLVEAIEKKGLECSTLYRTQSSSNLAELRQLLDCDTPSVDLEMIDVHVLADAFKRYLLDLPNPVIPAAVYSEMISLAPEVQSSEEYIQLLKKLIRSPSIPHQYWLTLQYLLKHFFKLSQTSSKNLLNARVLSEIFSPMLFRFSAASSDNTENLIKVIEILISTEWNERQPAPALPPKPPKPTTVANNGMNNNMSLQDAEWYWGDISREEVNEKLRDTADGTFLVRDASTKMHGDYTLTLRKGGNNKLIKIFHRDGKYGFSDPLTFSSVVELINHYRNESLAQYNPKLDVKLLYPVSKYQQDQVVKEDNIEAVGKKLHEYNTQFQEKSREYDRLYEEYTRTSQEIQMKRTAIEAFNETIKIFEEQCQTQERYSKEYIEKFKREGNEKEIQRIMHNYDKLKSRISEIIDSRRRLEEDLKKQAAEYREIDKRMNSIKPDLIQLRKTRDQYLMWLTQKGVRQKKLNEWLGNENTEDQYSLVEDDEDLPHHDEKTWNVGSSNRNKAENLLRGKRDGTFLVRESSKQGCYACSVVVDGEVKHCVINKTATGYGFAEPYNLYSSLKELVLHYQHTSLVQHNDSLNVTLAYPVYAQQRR

Row | Structure (SMILES) | IC50 [µM]
1 | C[C@H](Nc1nc(N)nc(C(F)F)c1C#N)c1nc2c(F)cc(F)cc2c(=O)n1-c1cc[nH]n1 [Compound 187, (S)-2-amino-4-((1-(6,8-difluoro-4-oxo-3-(1H-pyrazol-3-yl)-3,4-dihydroquinazolin-2-yl)ethyl)amino)-6-(difluoromethyl)pyrimidine-5-carbonitrile] | 0.006
2 | C[C@H](Nc1nc(N)nc(C(F)F)c1Cl)c1nc2cc(F)cc(F)c2c(=O)n1-c1cc[nH]n1 [Compound 233, (S)-2-(1-((2-amino-5-chloro-6-(difluoromethyl)pyrimidin-4-yl)amino)ethyl)-5,7-difluoro-3-(1H-pyrazol-3-yl)quinazolin-4(3H)-one] | 10
3 | C[C@H](Nc1nc(N)nc(C(F)F)c1Cl)c1nc2c(F)c(F)ccc2c(=O)n1-c1cc[nH]n1 [Compound 234, (S)-2-(1-((2-amino-5-chloro-6-(difluoromethyl)pyrimidin-4-yl)amino)ethyl)-7,8-difluoro-3-(1H-pyrazol-3-yl)quinazolin-4(3H)-one] | 7.6

These compounds were tested against T2, PI3Kγ (Homo sapiens, UniProt P48736) (assay: TR-FRET enzymatic activity assay, PI3Kγ). Conditions: not given.
T2 construct: made in house
Type: biochemical
Experimental: The compounds of formula (I) were characterized for their enzymatic activity against the PI3K isoforms. The activities were measured using a time-resolved fluorescence resonance energy transfer (TR-FRET) assay.

T2 sequence (P48736 whole entry): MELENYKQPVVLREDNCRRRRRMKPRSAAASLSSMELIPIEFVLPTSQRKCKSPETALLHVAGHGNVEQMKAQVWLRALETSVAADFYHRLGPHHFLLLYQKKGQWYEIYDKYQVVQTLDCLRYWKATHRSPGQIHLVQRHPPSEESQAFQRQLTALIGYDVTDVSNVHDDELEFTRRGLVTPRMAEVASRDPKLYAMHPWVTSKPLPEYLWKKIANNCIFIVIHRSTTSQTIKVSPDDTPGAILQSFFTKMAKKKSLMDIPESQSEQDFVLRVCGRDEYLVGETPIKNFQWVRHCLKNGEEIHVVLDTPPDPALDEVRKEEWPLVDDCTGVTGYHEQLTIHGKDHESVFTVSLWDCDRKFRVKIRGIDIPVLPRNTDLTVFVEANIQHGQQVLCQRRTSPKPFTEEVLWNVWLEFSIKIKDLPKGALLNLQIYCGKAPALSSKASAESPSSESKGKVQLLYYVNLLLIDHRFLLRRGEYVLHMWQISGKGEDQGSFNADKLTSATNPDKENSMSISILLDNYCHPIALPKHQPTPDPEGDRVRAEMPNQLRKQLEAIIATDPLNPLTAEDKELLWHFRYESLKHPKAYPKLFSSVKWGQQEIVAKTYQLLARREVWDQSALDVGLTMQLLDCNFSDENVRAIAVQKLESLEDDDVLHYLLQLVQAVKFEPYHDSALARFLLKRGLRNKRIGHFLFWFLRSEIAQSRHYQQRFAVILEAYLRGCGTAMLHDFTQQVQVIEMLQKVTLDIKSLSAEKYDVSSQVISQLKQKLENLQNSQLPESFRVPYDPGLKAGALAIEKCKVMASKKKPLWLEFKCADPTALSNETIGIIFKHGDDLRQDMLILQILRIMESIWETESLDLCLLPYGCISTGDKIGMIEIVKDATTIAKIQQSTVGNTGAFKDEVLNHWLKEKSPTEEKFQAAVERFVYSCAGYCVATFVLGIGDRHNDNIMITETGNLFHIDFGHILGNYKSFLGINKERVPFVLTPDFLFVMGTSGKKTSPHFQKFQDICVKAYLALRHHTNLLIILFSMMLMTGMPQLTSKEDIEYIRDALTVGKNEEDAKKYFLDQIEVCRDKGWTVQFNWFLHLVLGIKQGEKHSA

Row | Structure (SMILES) | IC50 [µM]
4 | C[C@H](Nc1nc(N)nc(N)c1Cl)c1nc2ccc(F)cc2c(=O)n1-c1cc[nH]n1 [Compound 111, (S)-2-(1-((2,6-diamino-5-chloropyrimidin-4-yl)amino)ethyl)-6-fluoro-3-(1H-pyrazol-3-yl)quinazolin-4(3h)-one] | > 10
5 | C[C@H](Nc1nc(N)nc(N)c1Cl)c1nc2c(Cl)cc(F)cc2c(=O)n1-c1cc[nH]n1 [Compound 123, (S)-8-chloro-2-(1-((2,6-diamino-5-chloropyrimidin-4-yl)amino)ethyl)-6-fluoro-3-(1H-pyrazol-3-yl)quinazolin-4(3h)-one] | > 10
6 | C[C@H](Nc1nc(N)nc(N)c1Cl)c1nc2cccc(F)c2c(=O)n1-c1cc[nH]n1 [Compound 151, (S)-2-(1-((2,6-diamino-5-chloropyrimidin-4-yl)amino)ethyl)-5-fluoro-3-(1H-pyrazol-3-yl)quinazolin-4(3H)-one] | > 10
7 | C[C@H](Nc1nc(N)nc(N)c1Cl)c1nc2c(F)cccc2c(=O)n1-c1cc[nH]n1 [Compound 153, (S)-2-(1-((2,6-diamino-5-chloropyrimidin-4-yl)amino)ethyl)-8-fluoro-3-(1H-pyrazol-3-yl)quinazolin-4(3H)-one] | > 10
8 | C[C@H](Nc1cc(N)nc(N)n1)c1nc2cccc(Cl)c2c(=O)n1-c1cc[nH]n1 [Compound 163, (S)-5-chloro-2-(1-((2,6-diaminopyrimidin-4-yl)amino)ethyl)-3-(1H-pyrazol-3-yl)quinazolin-4(3H)-one] | > 10
9 | C[C@@H](Nc1nc(N)nc(N)c1Cl)c1nc2c(Cl)cc(F)cc2c(=O)n1-c1cc[nH]n1 [Compound 174, (R)-8-chloro-2-(1-((2,6-diamino-5-chloropyrimidin-4-yl)amino)ethyl)-6-fluoro-3-(1H-pyrazol-3-yl)quinazolin-4(3H)-one] | > 10

Same assay, conditions: Table 2; TR-FRET, 2x Km ATP, 30 minutes at 25° C.; read-out: PI3Kγ IC50

Row | Structure (SMILES) | IC50 [µM]
10 | C[C@H](Nc1ncnc(N)c1C#N)c1nc2cccc(Cl)c2c(=O)n1-c1cn[nH]c1 [Compound 2, (S)-4-amino-6-((1-(5-chloro-4-oxo-3-(1H-pyrazol-4-yl)-3,4-dihydroquinazolin-2-yl)ethyl)amino)pyrimidine-5-carbonitrile] | 0.99
11 | C[C@H](Nc1nc(N)nc(N)c1C#N)c1nc2cccc(Cl)c2c(=O)n1-c1cc[nH]n1 [Compound 16, (S)-2,4-diamino-6-((1-(5-chloro-4-oxo-3-(1H-pyrazoyl)-3,4-dihydroquinazolin-2-yl)ethyl)amino)pyrimidine-5-carbonitrile] | 0.051
12 | N#Cc1c(N)nc(N)nc1N[C@H](c1nc2cccc(Cl)c2c(=O)n1-c1cc[nH]n1)C1CC1 [Compound 18, (S)-2,4-diamino-6-(((5-chloro-4-oxo-3-(1H-pyrazol-3-yl)-3,4-dihydroquinazolin-2-yl)(cyclopropyl)methyl)amino)pyrimidine-5-carbonitrile] | 0.19
13 | Nc1nc(N)c(Cl)c(N[C@H](c2nc3cccc(Cl)c3c(=O)n2-c2cc[nH]n2)C2CC2)n1 [Compound 20, (S)-5-chloro-2-(cyclopropyl((2,6-diamino-5-chloropyrimidin-4-yl)amino)methyl)-3-(1H-pyrazol-3-yl)quinazolin-4(3H)-one] | 5.9
14 | C[C@H](Nc1ncnc(N)c1C#N)c1nc2cccc(Cl)c2c(=O)n1-c1cc[nH]n1 [Compound 22, (S)-4-amino-6-((1-(5-chloro-4-oxo-3-(1H-pyrazol-3-yl)-3,4-dihydroquinazolin-2-yl)ethyl)amino)pyrimidine-5-carbonitrile] | 0.99
15 | Cc1nc(N)nc(N[C@H](c2nc3cccc(Cl)c3c(=O)n2-c2cc[nH]n2)C2CC2)c1C#N [Compound 28, (S)-2-amino-4-(((5-chloro-4-oxo-3-(1H-pyrazol-3-yl)-3,4-dihydroquinazolin-2-yl)(cyclopropyl)methyl)amino)-6-methylpyrimidine-5-carbonitrile] | 0.27
16 | N#Cc1c(Cl)nc(N)nc1N[C@H](c1nc2cccc(Cl)c2c(=O)n1-c1cc[nH]n1)C1CC1 [Compound 63, (S)-2-amino-4-chloro-6-(((5-chloro-4-oxo-3-(1H-pyrazol-3-yl)-3,4-dihydroquinazolin-2-yl)(cyclopropyl)methyl)amino)pyrimidine-5-carbonitrile] | 1.3
17 | C[C@H](Nc1nc(N)nc(N)c1Cl)c1nc2cccc(Cl)c2c(=O)n1-c1cc[nH]n1 [Compound 64, (S)-5-chloro-2-(1-((2,6-diamino-5-chloropyrimidin-4-yl)amino)ethyl)-3-(1H-pyrazol-3-yl)quinazolin-4(3H)-one] | 1.2
18 | N#Cc1c(N)nc(N)nc1N[C@H](c1nc2c(Cl)cc(F)cc2c(=O)n1-c1cc[nH]n1)C1CC1 [Compound 125, (S)-2,4-diamino-6-(((8-chloro-6-fluoro-4-oxo-3-(1H-pyrazol-3-yl)-3,4-dihydroquinazolin-2-yl)(cyclopropyl)methyl)amino)pyrimidine-5-carbonitrile] | 0.63

Same assay, conditions: Table 2a; same assay; read-out: PI3Kγ IC50

Row | Structure (SMILES) | IC50 [µM]
19 | Nc1nc(N)c(Cl)c(N[C@@H](c2nc3cccc(Cl)c3c(=O)n2-c2cc[nH]n2)C2CC2)n1 [Compound 160, (R)-5-chloro-2-(cyclopropyl((2,6-diamino-5-chloropyrimidin-4-yl)amino)methyl)-3-(1H-pyrazol-3-yl)quinazolin-4(3H)-one] | > 10
20 | C[C@H](Nc1nc(N)nc(N)c1Cl)c1nc2c(F)cc(F)cc2c(=O)n1-c1cc[nH]n1 [Compound 161, (S)-2-(1-((2,6-diamino-5-chloropyrimidin-4-yl)amino)ethyl)-6,8-difluoro-3-(1H-pyrazol-3-yl)quinazolin-4(3H)-one] | 4.4
21 | C[C@H](Nc1nc(N)nc(C(F)(F)F)c1C#N)c1nc2cccc(Cl)c2c(=O)n1-c1cc[nH]n1 [Compound 168, (S)-2-amino-4-((1-(5-chloro-4-oxo-3-(1H-pyrazol-3-yl)-3,4-dihydroquinazolin-2-yl)ethyl)amino)-6-(trifluoromethyl)pyrimidine-5-carbonitrile] | > 10
22 | N#Cc1c(N[C@H](c2nc3cccc(Cl)c3c(=O)n2-c2cc[nH]n2)C2CC2)nc(N)nc1C(F)F [Compound 171, (S)-2-amino-4-(((5-chloro-4-oxo-3-(1H-pyrazol-3-yl)-3,4-dihydroquinazolin-2-yl)(cyclopropyl)methyl)amino)-6-(difluoromethyl)pyrimidine-5-carbonitrile] | 1.1
23 | N#Cc1c(N[C@H](c2nc3c(Cl)cc(F)cc3c(=O)n2-c2cc[nH]n2)C2CC2)nc(N)nc1C(F)F [Compound 172, (S)-2-amino-4-(((8-chloro-6-fluoro-4-oxo-3-(1H-pyrazol-3-yl)-3,4-dihydroquinazolin-2-yl)(cyclopropyl)methyl)amino)-6-(difluoromethyl)pyrimidine-5-carbonitrile] | 3.5
24 | C[C@H](Nc1nc(N)nc(C(F)F)c1C#N)c1nc2c(Cl)cc(F)cc2c(=O)n1-c1cc[nH]n1 [Compound 173, (S)-2-amino-4-((1-(8-chloro-6-fluoro-4-oxo-3-(1H-pyrazol-3-yl)-3,4-dihydroquinazolin-2-yl)ethyl)amino)-6-(difluoromethyl)pyrimidine-5-carbonitrile] | 1.3
25 | CC[C@H](Nc1nc(N)nc(C(F)F)c1C#N)c1nc2c(Cl)cc(F)cc2c(=O)n1-c1cc[nH]n1 [Compound 180, (S)-2-amino-4-((1-(8-chloro-6-fluoro-4-oxo-3-(1H-pyrazol-3-yl)-3,4-dihydroquinazolin-2-yl)propyl)amino)-6-(difluoromethyl)pyrimidine-5-carbonitrile] | 7.8
26 | C[C@H](Nc1nc(N)nc(C(F)F)c1C#N)c1nc2c(F)cccc2c(=O)n1-c1cc[nH]n1 [Compound 186, (S)-2-amino-4-(difluoromethyl)-6-((1-(8-fluoro-4-oxo-3-(1H-pyrazol-3-yl)-3,4-dihydroquinazolin-2-yl)ethyl)amino)pyrimidine-5-carbonitrile] | 4.3
27 | C[C@H](Nc1nc(N)nc(C(F)F)c1C#N)c1nc2c(F)cc(F)cc2c(=O)n1-c1cc[nH]n1 [Compound 187, (S)-2-amino-4-((1-(6,8-difluoro-4-oxo-3-(1H-pyrazol-3-yl)-3,4-dihydroquinazolin-2-yl)ethyl)amino)-6-(difluoromethyl)pyrimidine-5-carbonitrile] | 2.3
28 | C[C@H](Nc1nc(N)nc(C(F)F)c1C#N)c1nc2cccc(F)c2c(=O)n1-c1cc[nH]n1 [Compound 191, (S)-2-amino-4-(difluoromethyl)-6-((1-(5-fluoro-4-oxo-3-(1H-pyrazol-3-yl)-3,4-dihydroquinazolin-2-yl)ethyl)amino)pyrimidine-5-carbonitrile] | > 10
29 | C[C@H](Nc1nc(N)nc(C(F)F)c1C#N)c1nc2ccc(F)cc2c(=O)n1-c1cc[nH]n1 [Compound 193, (S)-2-amino-4-(difluoromethyl)-6-((1-(6-fluoro-4-oxo-3-(1H-pyrazol-3-yl)-3,4-dihydroquinazolin-2-yl)ethyl)amino)pyrimidine-5-carbonitrile] | 8
30 | C[C@H](Nc1nc(N)nc(C(F)F)c1Cl)c1nc2cc(F)cc(F)c2c(=O)n1-c1cc[nH]n1 [Compound 233, (S)-2-(1-((2-amino-5-chloro-6-(difluoromethyl)pyrimidin-4-yl)amino)ethyl)-5,7-difluoro-3-(1H-pyrazol-3-yl)quinazolin-4(3H)-one] | > 10
31 | C[C@H](Nc1nc(N)nc(C(F)F)c1Cl)c1nc2c(F)c(F)ccc2c(=O)n1-c1cc[nH]n1 [Compound 234, (S)-2-(1-((2-amino-5-chloro-6-(difluoromethyl)pyrimidin-4-yl)amino)ethyl)-7,8-difluoro-3-(1H-pyrazol-3-yl)quinazolin-4(3H)-one] | > 10
32 | CC[C@H](Nc1nc(N)nc(N)c1Cl)c1nc2c(Cl)cc(F)cc2c(=O)n1-c1cc[nH]n1 [Compound 257, (S)-8-chloro-2-(1-((2,6-diamino-5-chloropyrimidin-4-yl)amino)propyl)-6-fluoro-3-(1H-pyrazol-3-yl)quinazolin-4(3H)-one] | > 10
